Laboratory results from patent EP0548931A1, “Material for controlling pests” (SUMITOMO CHEMICAL COMPANY, LIMITED, priority 1991, dated 1993).

Assays:
sweetpotato whitefly [1] = assay: Test Example 6: spray-coated yellow Kent paper (Production Example 5) in net cage, hatching inhibition; type: in vivo, Bemisia tabaci; conditions: yellow Kent paper 15 cm x 15 cm, 1 g/m², spray-coated from acetone; eggs laid on kidney bean
Method: One part of the insect growth regulator is dissolved in 99 parts of acetone. One hundred grams of the resulting solution is spray-coated onto a square yellow Kent paper having a side of 100 cm to obtain a material for controlling pests containing 1 g/m² of the active ingredient. A material for controlling pests with pyriproxyfen as insect growth regulator prepared according to Production Example 5 was formed into a size of 15 cm x 15 cm. It was set on one wall surface of a nylon net cage of 30 cm x 30 cm x 30 cm in size. About 100 adults of sweetpotato whitefly were released in the cage together with kidney bean on which the adults had been parasitized. One day after release of the adults, a potted kidney bean having no adults parasitized thereon was set in the cage for oviposition. Among the eggs laid on the potted kidney bean until the next day, the number of unhatched eggs was counted.

sweetpotato whitefly [2] = assay: Test Example 8: yellow Kent paper (Production Example 7) in net cage, hatching inhibition; type: in vivo, Bemisia tabaci; conditions: yellow Kent paper 15 cm x 15 cm, 0.01 g/m², cotton seed oil; eggs laid on kidney bean
Method: 0.01 Part of the insect growth regulator is dissolved in 99.99 parts of a vegetable oil. The resulting solution is applied to a roll of yellow Kent paper of 50 cm in width and 2,000 m in length by gravure printing to obtain material for controlling pests containing 0.01 g/m² of the active ingredient. A material for controlling pests containing pyriproxyfen (insect growth regulator) and a cotton seed oil (vegetable oil) prepared according to Production Example 7 was formed into a size of 15 cm x 15 cm. It was set on one wall surface of a nylon net cage of 30 cm x 30 cm x 30 cm in size. About 100 adults of sweetpotato whitefly were released in the cage together with kidney bean on which the adults had been parasitized. One day after release of the adults, a potted kidney bean having no adults parasitized thereon was set in the cage for oviposition. Among the eggs laid on the potted kidney bean until the next day, the number of unhatched eggs was counted.

sweetpotato whiteflies [3] = assay: Test Example 11: yellow polyethylene sheet (Production Example 9), pest-controlling effect, count of adults; type: in vivo, Bemisia tabaci
Method: (§1) Ninety-eight parts by weight of a polyethylene resin (Sumikathene®; a registered trade mark of Sumitomo Chemical Co., Ltd.), 1 part by weight of pyriproxyfen, a juvenile hormone-like compound, and 1 part by weight of a polyethylene colored master batch for yellow coloration (SPEM 305 produced by Sumika Color Co., pigment content: 12 wt.%) are kneaded with a pressure kneader and then pelletized. The resulting pellet is extruded through an extruder equipped with a T-dies at 160° to 180°C to obtain a sheet-form material for controlling pests of 1 mm in thickness. A sheet-like material for controlling pests prepared according to Production Example 9 was formed into a size of 15 cm x 15 cm. It was set at the same height as that of a container (80 cm x 112 cm x 45 cm) in which tomato having greenhouse whiteflies parasitized thereon had been planted. On the other hand, a yellow film containing no insect growth regulator was set as a control in the same manner as in setting the above material for controlling pests. On the predetermined day, the number of greenhouse whitefly adults parasitized on the tomato was counted. In the same manner as in Test Example 10, the pest-controlling effect on sweetpotato whiteflies was examined.

sweetpotato whiteflies [4] = assay: Test Example 2: yellow cloth material (Production Example 2), pest-controlling effect, count of adults; type: in vivo, Bemisia tabaci; conditions: 0.16 mg/cm²
Method: 0.4 Part of the insect growth regulator is dissolved in 40 parts of acetone and further 0.8 part of rape seed oil is added thereto. Thirty-one milliliters of the resulting solution is absorbed in a yellow cloth of 21 cm x 92 cm in size. Acetone is then vaporized to obtain a material for controlling pests containing 0.16 mg/cm² of the active ingredient. A material for controlling pests with pyriproxyfen as insect growth regulator was prepared according to Production Example 2. It was set at the same height as that of a container (80 cm x 112 cm x 45 cm) in which tomato having greenhouse whiteflies parasitized thereon had been planted. On the other hand, a yellow cloth containing no insect growth regulator was set as a control at a distance of about 8 m. On the predetermined day, the number of greenhouse whitefly adults parasitized on the tomato was counted. Table 1 In the same manner as in Test Example 1, the pest-controlling effect on sweetpotato whiteflies was examined.

greenhouse whiteflies = assay: Test Example 10: yellow polyethylene sheet (Production Example 9) set beside tomato, count of adults; type: in vivo, Trialeurodes vaporariorum
Method: as §1, with “counted.” for “counted. In the same manner as in Test Example 10, the pest-controlling effect on sweetpotato whiteflies was examined.”

CC(COc1ccc(Oc2ccccc2)cc1)Oc1ccccn1 (stereo not drawn) [pyriproxyfen, 4-phenoxyphenyl 2-(2-pyridyloxy)propyl ether]
Hatching inhibitory rate (%) (sweetpotato whitefly [1]): 99.0% | Hatching inhibitory rate (%) (sweetpotato whitefly [2]): 100% | number of sweetpotato whitefly adults (pest-controlling effect) (sweetpotato whiteflies [3]; 0 days elapsed after setting): 70 | number of sweetpotato whitefly adults (pest-controlling effect) (sweetpotato whiteflies [3]; 7 days elapsed after setting): 30 | number of sweetpotato whitefly adults (pest-controlling effect) (sweetpotato whiteflies [3]; 14 days elapsed after setting): 20 | number of sweetpotato whitefly adults (pest-controlling effect) (sweetpotato whiteflies [3]; 18 days elapsed after setting): 18 | number of sweetpotato whitefly adults (pest-controlling effect) (sweetpotato whiteflies [3]; 29 days elapsed after setting): 8 | number of sweetpotato whitefly adults (pest-controlling effect) (sweetpotato whiteflies [3]; 35 days elapsed after setting): 5 | number of sweetpotato whitefly adults (pest-controlling effect) (sweetpotato whiteflies [4]; 0 days elapsed after setting): 53 | number of sweetpotato whitefly adults (pest-controlling effect) (sweetpotato whiteflies [4]; 7 days elapsed after setting): 40 | number of sweetpotato whitefly adults (pest-controlling effect) (sweetpotato whiteflies [4]; 14 days elapsed after setting): 35 | number of sweetpotato whitefly adults (pest-controlling effect) (sweetpotato whiteflies [4]; 18 days elapsed after setting): 20 | number of sweetpotato whitefly adults (pest-controlling effect) (sweetpotato whiteflies [4]; 29 days elapsed after setting): 10 | number of sweetpotato whitefly adults (pest-controlling effect) (sweetpotato whiteflies [4]; 35 days elapsed after setting): 1 | number of greenhouse whitefly adults parasitized on the tomato (mean value per cup) (greenhouse whiteflies; 0 days elapsed after setting, yellow polyethylene sheet 1 mm, 1 part by weight pyriproxyfen, 15 cm x 15 cm): 105 | number of greenhouse whitefly adults parasitized on the tomato (mean value per cup) (greenhouse whiteflies; 7 days elapsed after setting, yellow polyethylene sheet): 78 | number of greenhouse whitefly adults parasitized on the tomato (mean value per cup) (greenhouse whiteflies; 14 days elapsed after setting, yellow polyethylene sheet): 75 | number of greenhouse whitefly adults parasitized on the tomato (mean value per cup) (greenhouse whiteflies; 18 days elapsed after setting, yellow polyethylene sheet): 50 | number of greenhouse whitefly adults parasitized on the tomato (mean value per cup) (greenhouse whiteflies; 28 days elapsed after setting, yellow polyethylene sheet): 20 | number of greenhouse whitefly adults parasitized on the tomato (mean value per cup) (greenhouse whiteflies; 35 days elapsed after setting, yellow polyethylene sheet): 10 | number of greenhouse whitefly adults parasitized on the tomato (mean value per cup) (greenhouse whiteflies; 42 days elapsed after setting, yellow polyethylene sheet): 3
